Test results as given in a melting point compilation (Tetko et al.; mined from patent text by program, amines drawn as free bases though some values may be those of a salt).

`N#Cc1cccc2c1CCC2O` (stereo not drawn) showed a melting point of 98 °C.
For `Clc1ccc2c(c1)[C@@H](c1ccccc1)[C@H]1CN(Cc3ccccc3)C[C@H]1C2` (racemic), the melting point was 115 to 117 °C.
`OC(c1cnc2c(cnn2-c2ccccc2)c1)(c1c[nH]c2ncccc12)C(F)(F)F` (stereo not drawn) showed a melting point of 137 to 141 °C.
`CC(=O)Nc1c(C#N)c(C#N)nn1-c1c(Cl)cc(C(F)(F)F)cc1Cl` gave a melting point of 208 to 209 °C.
`O=C(NCC12CC3CC(CC(C3)C1)C2)c1cc(I)ccc1Cl` gave a melting point of 161 to 162 °C.
`C=C(C)C(=O)OCCOCCOC(=O)c1ccc(O)c(Cl)c1` gave a melting point of 57 to 58.5 °C.
With `CCCOc1ccc(-c2scc(-c3ccccc3Cl)c2CC(=O)NC(=N)NCCCO)cc1` the melting point was 49 to 50 °C.
Molecule `C[C@H]1C(=O)C[C@@H]2C[C@H]1OO[C@]2(C)/C=C\c1ccc(Cl)c(Cl)c1` has a melting point of 135 °C.
`COc1ccc(S(=O)(=O)C(CCCc2ccccc2)CC(=O)O)cc1OC` (stereo not drawn) gave a melting point of 161 to 162 °C.
Molecule `CCc1noc(-c2cn(-c3ncc(OC(C)C)cn3)cn2)n1` has a melting point of 156 to 157 °C.
In the case of `Nc1ccc(-c2nc(Cl)c3c(=O)[nH][nH]c(=O)c3c2N)cc1`, the melting point is reported as > 300 °C.
`CC(C)CN(CC(C)C)S(=O)(=O)N[C@@H](Cc1ccc(NC(=O)c2c(Cl)cncc2Cl)cc1)C(=O)O` gave a melting point of 209 °C.
Work on `O=C(NC1CN(C(C(=O)O)c2ccccc2)C1=O)C(=NO)c1ccccc1` (stereo not drawn) yielded a melting point of 145 to 149 °C.
With `COc1ccc(COc2ccc3c(c2)C(c2ccc(C(C)C)cc2)C(C)(C)O3)cc1` (stereo not drawn) the melting point was 124 to 126 °C.
For `COc1ccc(/C=C/C(=O)c2ccc(OCc3ccccc3)cc2OCc2ccccc2)c(OC)c1C`, the melting point was 125 °C.
Molecule `O=C(c1ccc2nonc2c1)N(C1CCOCC1)C1CC1` has a melting point of 108 to 109 °C.
`CN(C)C(=O)OCc1nc([N+](=O)[O-])c(C#N)n1C` gave a melting point of 85 to 88 °C.
In the case of `Cc1cc(Cl)c2cc(F)c(OCc3ccccc3)cc2n1`, the melting point is reported as 110 to 111 °C.
For `CC(C)(C)S(=O)(=O)CS(=O)(=O)C(C)(C)C`, the melting point was 152 to 155 °C.
`CCN1C(=O)C(C(=O)Nc2ccccc2S(C)=O)c2cc3c(cc21)CCO3` (stereo not drawn) gave a melting point of 137 to 138 °C.
Molecule `Cc1oc(-c2ccco2)nc1COc1ccc(COc2nn(Cc3ccccc3)cc2C=O)cc1-c1ccccc1` has a melting point of 122 to 123 °C.
In the case of `COC(C#N)=CC1C(C(=O)O)C1(C)C` (stereo not drawn), the melting point is reported as 110 °C.
In the case of `CC(C)(C)c1cc(/C=C(\C#N)C(N)=S)cc(C(C)(C)C)c1O`, the melting point is reported as 210 °C.
With `CN(C)CCNC(=O)c1cn(C)c(=O)c2cc3ccccc3nc12` the melting point was 192 to 194 °C.
Work on `C=CCNCc1c(CO)nc2n1-c1ccc(Cl)cc1C(c1ccccc1F)=NC2` yielded a melting point of 140 °C.
Molecule `NS(=O)(=O)C12CC3CC(CC(C3)C1)C2` has a melting point of 191 to 193 °C.
For `COc1cc(N)c(Cl)cc1Br`, the melting point was 40 to 41 °C.
For `CCCn1cnc2c1c(=O)n(CCCCC(C)=O)c(=O)n2CC`, the melting point was 81 to 82 °C.
For `CCc1oc2ccccc2c1C(=O)NCc1ccc2c(Br)c(O)ccc2c1`, the melting point was 188 to 190 °C.
For `COc1ccc(C(=O)N2c3ccccc3C(n3c4ccccc4c4ccccc43)CC2CCCCCOc2ccc(F)cc2)cc1OC` (stereo not drawn), the melting point was 157 to 159 °C.
`Cc1ccc(S(=O)(=O)Nc2cccc3cc(C(N)=O)[nH]c23)cc1` showed a melting point of 312 to 313 °C.
In the case of `Nc1c(O)cc(Cl)cc1C(=O)C(F)(F)F`, the melting point is reported as 120 to 122 °C.
`COC(=O)C1=C(CO)NC(C)=C(C(=O)OCC(C)(C)C)C1c1ccccc1C#N` (stereo not drawn) showed a melting point of 178 to 180 °C.
`Cn1cc(C2=C(c3c4n(c5ccccc35)CCCC4)C(=O)OC2=O)c2ccccc21` gave a melting point of 276 to 278 °C.
Molecule `Fc1ccc(Cn2c(NC3CCN(CCNc4nc5ccccc5[nH]4)CC3)nc3ccccc32)cc1` has a melting point of 253 °C.
Molecule `COc1nc(N)c2ncn(C3OC(CO)C(O)C3O)c2n1` (stereo not drawn) has a melting point of 191 to 192 °C.
With `CN(C)c1ccc(-c2cccc3c2C2(COc4cc5c(cc42)CCO5)C(=O)N3Cc2ccc(C(F)(F)F)o2)cn1` (stereo not drawn) the melting point was 223 to 225 °C.
`COc1ccc(CCNC(=O)N(C)O)c(OC)c1` gave a melting point of 83 to 84 °C.
